According to patent publication US20100330136A1, “USE OF CATIONIC SURFACTANTS FOR THE PROTECTION AGANST TOOTH EROSION” (priority 2008, published 2010):

What was measured:
[1] = tested on: Leuconostoc mesenteroides CETC 912; settings: Gram + bacteria; cited from earlier work
[2] = tested on: Micrococcus luteus ATCC 9631; settings: Gram + bacteria; cited from earlier work
F. nucleatum = assay: Antimicrobial activity on the biofilm (Zurich Biofilm Model); assay type: cell-based, Fusobacterium nucleatum; settings: 0.5% LAE; 6 exposures of 1 minute in two days, evaluated 16 h after last exposure; control 5.1
Protocol: (§1) The biofilm model is a reliable tool to predict the in vivo efficacy of antimicrobials, and de- and remineralization of enamel exposed to biofilms in vitro. The experiments were performed with the Zurich Biofilm Model. Biofilms are formed either on hydroxyapatite (HA) or bovine enamel disks that have preconditioned in pooled, unstimulated saliva. Biofilms are formed in 24-well cell culture dishes incubated anaerobically at 37° C. The detailed description to the preparation of this model was published by Guggenheim et al., 2001, J. Dent. Res. 80 (1) 363-370. The microbial composition of this biofilm was constituted by five bacterial species and a yeast. More specifically, they are as follows: Streptococcus oralis, Streptococcus sobrinus, Actinomyces naeslundii, Veillonella dispar and Fusobacterium nucleatum and the yeast studied was Candida albicans. The bacteria chosen for incorporation into this biofilm model were five species encountered in supragingival plaque.
(§2) Most of the biofilm models are based on a continuous flow culture system which means that biofilms are subjected to shear or detachment forces. In contrast, the biofilm model used in these experiments was based on a batch culture system that was subjected only intermittently to such forces in the course of dip-washing or gentle swirling. […]
(§3) The results of the following table were expressed as log10 of CFU: […]

[3] = tested on: Penicillium chrysogenum CECT 2802; settings: Fungi; cited from earlier work
[4] = tested on: Rhodotorula rubra CECT 1158; settings: Yeast; cited from earlier work
[5] = tested on: Clostridium perfringens ATCC 77454; settings: Gram + bacteria; cited from earlier work
[6] = tested on: Streptococcus mutans ATCC 25175; settings: Gram + bacteria; cited from earlier work
S. sobrinus = assay: Antimicrobial activity on the biofilm (Zurich Biofilm Model); assay type: cell-based, Streptococcus sobrinus; settings: 0.5% LAE; 6 exposures of 1 minute in two days, evaluated 16 h after last exposure; control 8.6
Protocol: as §1, §2, §3

C. albicans = assay: as above; assay type: cell-based, Candida albicans; settings: 0.5% LAE; 6 exposures of 1 minute in two days, evaluated 16 h after last exposure; control 5.1
Protocol: as §1, §2, §3

[7] = tested on: Arthrobacter oxydans ATCC 8010; settings: Gram + bacteria; cited from earlier work
[8] = cited from earlier work
[9] = rats; cited from earlier work
[10] = tested on: Aspergillus niger ATCC14604; settings: Fungi; cited from earlier work
[11] = Effect of LAE on acids generated from sugar rinses: pH on tooth plaque interfaces; assay type: in vivo, Humans; settings: for intraoral pH after 10% sucrose rinse: 0.16% LAE, humans
Excerpt: It has been established, that beverages and food containing sugars promote tooth erosion. The American Dental Association (ADA) food and nutrition programs recommend a procedure for evaluating pH in the mouth after ingestion of food and beverages. This is summarized in the FDA guidelines published in Federal Register 43433, vol 61, No. 165, 1996. The procedure involved measuring pH on tooth plaque interfaces after giving the subjects (6 subjects per group) 10% sucrose rinse in the presence or absence of treatment with 0.16% LAE versus placebo solution containing flavor, sweetener, plasticizer (components of chewing gum) to assess their acid neutralizing effects. […] Whereas rinsing with LAE maintains a pH of 5.4±0.3 which is above the danger zone maintained for 3 and 7 days of continuous monitoring. This validates that LAE not only coats the surface of teeth but maintains a healthy pH around teeth to prevent erosion.
Another effect produced by LAE is the pH neutralization. Upon hydrolysis LAE forms arginine which is a natural pH neutralizer in human saliva. The following table reports the intraoral pH with LAE versus a placebo from 0 to 7 days after 10% sucrose rinse: […]

[12] = tested on: Bacillus cereus var mycoide ATCC 11778; settings: Gram + bacteria; cited from earlier work
[13] = tested on: Bordetella bronchiseptica ATCC 4617; settings: Gram − bacteria; cited from earlier work
[14] = tested on: Salmonella typhimurium ATCC16028; settings: Gram − bacteria; cited from earlier work
[15] = tested on: Staphylococcus aureus ATCC 6538; settings: Gram + bacteria; cited from earlier work
[16] = tested on: Candida albicans ATCC 10231; settings: Yeast; cited from earlier work
[17] = tested on: Lactobacillus delbrueckii ssp lactis CECT 372; settings: Gram + bacteria; cited from earlier work
Escherichia coli 0157H7 = settings: Gram − bacteria; cited from earlier work
[18] = tested on: Serratia marcenses CECT 274; settings: Gram − bacteria; cited from earlier work
[19] = tested on: Proteus mirabilis CECT 170; settings: Gram − bacteria; cited from earlier work
[20] = tested on: Chaetonium globosum ATCC 6205; settings: Fungi; cited from earlier work
[21] = tested on: Listeria monocytogenes ATCC 7644; settings: Gram + bacteria; cited from earlier work
S. oralis = assay: Antimicrobial activity on the biofilm (Zurich Biofilm Model); assay type: cell-based, Streptococcus oralis; settings: 0.5% LAE; 6 exposures of 1 minute in two days, evaluated 16 h after last exposure; control 9.0
Protocol: as §1, §2, §3

[22] = tested on: Klebsiella pneumoniae var pneumoniae CECT 178; settings: Gram − bacteria; cited from earlier work
[23] = tested on: Pseudomonas aeruginosa ATCC 9027; settings: Gram − bacteria; cited from earlier work
[24] = tested on: Bacillus subtilis ATCC 6633; settings: Gram + bacteria; cited from earlier work
[25] = Tooth coating effect: surface energy from contact angles of sessile drops (Glantz method); assay type: physicochemical; settings: for Surface Energy: enamel without LAE ca 23 dyn/cm
Excerpt: The tooth coating effect by LAE was validated by the methods described by Glantz PO (1981. “Adhesion in the oral cavity” In Fundamentals and application of surface interactions in the oral cavity (ed. S. A. Leach), pp 49-64. Information Retrieval Ltd. London). The method measures contact angles of sessile drops from liquids with a range of polarities to determine the polar component of the surface energy (gamma p) and dispersive component on teeth coated with LAE. Without LAE the surface energy was 23 dyn/cm. […] In the presence of LAE the surface energy was reduced to a lowest level of 11.5 dyn/cm. This coating provides a shielding effect on teeth against erosion caused by acids from food and beverages.
The surface energy of enamel is ca 23 dyn/cm. This surface energy is reduced by the presence of LAE to the following values: […]

[26] = tested on: Aureobasidium pullulans ATCC 9348; settings: Fungi; cited from earlier work
[27] = tested on: microorganisms in biofilm (five bacterial species and a yeast); assay: Re-growth of biofilms after LAE exposure (Zurich Biofilm Model); assay type: cell-based; settings: 1% LAE
Protocol: as §1
Most of the biofilm models are based on a continuous flow culture system which means that biofilms are subjected to shear or detachment forces. In contrast, the biofilm model used in these experiments was based on a batch culture system that was subjected only intermittently to such forces in the course of dip-washing or gentle swirling. Thus, this biofilm model allows for controlled substance exposure times resembling those encountered during mouth rinsing.
The biofilms were exposed to LAE only 6 times during 1 minute in two subsequent days. The evaluation of the LAE effects was studied 16 h after the last exposure.
This experiment compared the re-growth of microorganisms in a control biofilm against a biofilm exposed to LAE. The content of microorganisms in each biofilm was studied along the time. For each point of analysis the growth of microorganisms was studied before and after a dip in a saline solution for control biofilms and in LAE for the other biofilms after each feeding.
The results are expressed as log10 of CFU: […]

V. dispar = assay: Antimicrobial activity on the biofilm (Zurich Biofilm Model); assay type: cell-based, Veillonella dispar; settings: 0.5% LAE; 6 exposures of 1 minute in two days, evaluated 16 h after last exposure; control 8.1
Protocol: as §1, §2, §3

[28] = tested on: Citrobacter freundii ATCC 22636; settings: Gram − bacteria; cited from earlier work
[29] = tested on: Escherichia coli ATCC 8739; settings: Gram − bacteria; cited from earlier work
A. naeslundii = assay: Antimicrobial activity on the biofilm (Zurich Biofilm Model); assay type: cell-based, Actinomyces naeslundii; settings: 0.5% LAE; 6 exposures of 1 minute in two days, evaluated 16 h after last exposure; control 8.3
Protocol: as §1, §2, §3

[30] = tested on: Gliocadium virens ATCC 4645; settings: Fungi; cited from earlier work
[31] = tested on: Saccharomyces cerevisiae ATCC 9763; settings: Yeast; cited from earlier work
[32] = tested on: Alcaligenes faecalis ATCC 8750; settings: Gram − bacteria; cited from earlier work
[33] = tested on: Penicillium funiculosum CECT 2914; settings: Fungi; cited from earlier work
[34] = tested on: Mycobacterium phlei ATCC 41423; settings: listed under Gram − bacteria; cited from earlier work
[35] = tested on: Enterobacter aerogenes CECT 689; settings: Gram − bacteria; cited from earlier work

In the case of CCCCCCCCCCCC(=O)N[C@@H](CCCN=C(N)N)C(=O)OCC.Cl [LAE, ethyl ester of the lauramide of the arginine monohydrochloride], the M.I.C. [1] is given as 32 ppm, the M.I.C. [2] is given as 128 ppm and the “log10 of CFU in biofilm” value (F. nucleatum) is given as 2.1 log10 of CFU. For the same compound, the M.I.C. [3] was 128 ppm, the M.I.C. [4] was 16 ppm and the M.I.C. [5] was 16 ppm. The M.I.C. [6] was 64 ppm, the “log10 of CFU in biofilm” value (S. sobrinus) was 6.1 log10 of CFU and the “log10 of CFU in biofilm” value (C. albicans) was 2.1 log10 of CFU. The M.I.C. [7] was 64 ppm, the “tolerance and toxicity in practical use” value ([8]; human beings) was “well tolerated and to display a very low toxicity to human beings” and the toxicity ([8]; toxicological studies, animals and humans) was “completely harmless to animals and humans”. For the same compound, the absorption and metabolism [9] was “fast absorption and metabolisation into naturally-occurring amino acids and the fatty acid lauric acid”, the M.I.C. [10] was 32 ppm and the “intraoral pH after 10% sucrose rinse” value ([11]; Day 0, placebo 6) was 6. The “intraoral pH after 10% sucrose rinse” value ([11]; Day 3, placebo 4.3) was 5.3, the “intraoral pH after 10% sucrose rinse” value ([11]; Day 7, placebo 4.3) was 5.2 and the “pH of the tooth interface after 10% sucrose rinse” value ([11]; maintained for 3 and 7 days of continuous monitoring, 0.16% LAE rinse, placebo 4.3±0.2, danger zone below pH 5) was 5.4±0.3. The M.I.C. [12] was 32 ppm, the M.I.C. [13] was 128 ppm and the M.I.C. [14] was 32 ppm. For the same compound, the M.I.C. [15] was 32 ppm, the M.I.C. [16] was 16 ppm and the M.I.C. [17] was 16 ppm. For the same compound, the M.I.C. (Escherichia coli 0157H7) was 20 ppm, the M.I.C. [18] was 32 ppm and the M.I.C. [19] was 32 ppm. For the same compound, the M.I.C. [20] was 16 ppm, the M.I.C. [21] was 10 ppm and the “log10 of CFU in biofilm” value (S. oralis) was 6.1 log10 of CFU. For the same compound, the M.I.C. [22] was 32 ppm, the M.I.C. [23] was 64 ppm and the M.I.C. [24] was 16 ppm. The “Surface Energy” value ([25]; [LAE] 0.00001 %) was 21.5 dyn/cm, the “Surface Energy” value ([25]; [LAE] 0.001 %) was 16.5 dyn/cm and the “Surface Energy” value ([25]; [LAE] 0.01 %) was 11.5 dyn/cm. The “Surface Energy” value ([25]; [LAE] 0.1 %) was 14 dyn/cm, the “Surface Energy” value ([25]; [LAE] 1 %) was 12 dyn/cm and the “Surface energy, lowest level in the presence of LAE” value ([25]; lowest level, without LAE 23 dyn/cm) was 11.5 dyn/cm. The M.I.C. [26] was 16 ppm, the “log10 of CFU, biofilm re-growth” value ([27]; 16.5 h, After 1 dip, control 7.2) was 3.5 log10 of CFU and the “log10 of CFU, biofilm re-growth” value ([27]; 16.5 h, Before 1 dip, control 7.1) was 7.1 log10 of CFU. For the same compound, the “log10 of CFU, biofilm re-growth” value ([27]; 24.5 h, After 3 dip, control 7.4) was 2.2 log10 of CFU, the “log10 of CFU, biofilm re-growth” value ([27]; 24.5 h, Before 3 dip, control 8.1) was 1.4 log10 of CFU and the “log10 of CFU, biofilm re-growth” value ([27]; 40.5 h, After 4 dip, control 8.1) was 1.2 log10 of CFU. The “log10 of CFU, biofilm re-growth” value ([27]; 40.5 h, Before 4 dip, control 8.1) was 5.9 log10 of CFU, the “log10 of CFU, biofilm re-growth” value ([27]; 48.5 h, After 6 dip, control 8.4) was 1.2 log10 of CFU and the “log10 of CFU, biofilm re-growth” value ([27]; 48.5 h, Before 6 dip, control 8.5) was 3.2 log10 of CFU. For the same compound, the “log10 of CFU, biofilm re-growth” value ([27]; 64.5 h, Endpoint, control 9.0) was 4.3 log10 of CFU, the “log10 of CFU in biofilm” value (V. dispar) was 5.0 log10 of CFU and the M.I.C. [28] was 64 ppm. The M.I.C. [29] was 32 ppm, the “log10 of CFU in biofilm” value (A. naeslundii) was 2.5 log10 of CFU and the M.I.C. [30] was 32 ppm. For the same compound, the M.I.C. [31] was 32 ppm, the M.I.C. [32] was 64 ppm and the M.I.C. [33] was 16 ppm. The M.I.C. [34] was 2 ppm and the M.I.C. [35] was 32 ppm.
